Reference: patent US7083667B2, “Colorant compound, ink, ink tank, recording unit, recording apparatus and recording process” (Canon Kabushiki Kaisha, priority 2004, dated 2006)

Test: Determination of solubility in chloroform at room temperature
Format: physicochemical
Details: for Solubility in chloroform (in words): nonpolar solvent; for Solubility: in chloroform, room temperature
Description: Determination of Solubility
With respect to Colorant Compounds (5) to (16) obtained above, solubility in chloroform at room temperature was determined.

For `Cc1cccc(C)c1N=c1ccc2c(-c3ccccc3S(=O)(=O)O)c3ccc(Nc4c(C)ccc(S(=O)(=O)[O-])c4C)cc3oc-2c1.[Na+]` [C.I. Acid Red 289, reference compound], the “Solubility in chloroform (in words)” value was “not dissolved”.

With `CCOC(=O)c1ccccc1-c1c2cc/c(=N\c3c(C)cccc3C)cc-2oc2cc(Nc3c(C)cccc3C)ccc12` [Compound (6)] the “Solubility in chloroform (in words)” value was “higher solubility” and the Solubility was 20.5 % by mass.

`CCOC(=O)c1ccccc1-c1c2cc/c(=N\c3c(C)cccc3C)cc-2oc2cc(Nc3c(C)cccc3C)ccc12.Cl` [Compound (5)] showed a Solubility of 10.7 % by mass.
